In patent US20090305894A1, “use of sulfonanilides as herbicide” (priority 2005, published 2009):

Experiments:
Type in all cases: in vivo
[1] = tested on: paddy rice seedlings (cultivar: Nihonbare); experiment: Herbicide damage on transplanted paddy rice (Test Example 2, Table 9); settings: 60 g ai/ha, applied to water surface 5 days after transplantation, rated after 3 weeks; 100% = complete withering, 0% = no damage
Description: (§1) The formulations of active compounds were obtained as emulsions by mixing 1 part by weight of the active compound with the carrier and emulsifier in the described amounts. The formulations were diluted with water so as to adjust a prescribed dosage.
In a greenhouse each three paddy rice seedlings (cultivar: Nihonbare) were transplanted (transplantation depth 2 cm) in each pot filled with 500 cm^2 of paddy field soil and covered with water in about 2 to 3 cm depth. After 5 days from the transplantation, prescribed diluted solutions of the formulations of the respective active compounds obtained in the same manner as in Test Example 1 were applied to the water surface of each pot. After the treatment, the water depth of 3 cm was kept. The herbicide damage was investigated after 3 weeks of the treatment. The herbicide damage was rated as 100% in the case of complete withering and 0% in the case of no herbicide damage. When the herbicide damage was 20% or lower, the safety as a paddy rice herbicide was evaluated to be excellent. As the representative examples, the test results of the compound Nos. 3, 4, 5, 6, 7, 70, 115, 127 and 128, and comparative compound C-2 are shown in Table 9.

[2] = tested on: Scirpus juncoides Roxburgh (resistant to sulfonylurea type herbicide); experiment: Herbicidal efficacy test to weeds resistant to sulfonylurea type herbicide (Test Example 1, applied on water surface, Table 8); settings: 60 g ai/ha, applied on water surface at beginning of sprouting, rated after 3 weeks; 100% = complete withering, 0% = no effect
Description: (§2) Preparation of formulation of active compound
(§3) Carrier: DMF 5 parts by weight
(§4) Emulsifier: benzyloxypolyglycol ether 1 part by weight
as §1
(§5) In a greenhouse respective seeds of Scirpus juncoides Roxburgh (from Hokkaido, Japan) and Lindernia procumbens Philcox (from Saitama, Japan), which are confirmed to have resistance to a sulfonylurea type herbicide, were inoculated in pots filled with 500 cm^2 of paddy field soil and water was poured to the pot in about 2 to 3 cm depth. At the beginning of sprouting of the weeds, prescribed diluted solutions of the formulations of the respective active compounds obtained by the above-mentioned manner were applied on the water surface. After the treatment water depth of 3 cm was kept. The herbicidal effect was investigated after 3 weeks of the treatment. The herbicidal effect was rated as 100% in the case of complete withering and 0% in the case of no herbicidal effect. When the herbicidal effect was 80% or higher, the practical effectiveness as herbicides is recognized. As the representative examples, the test results of the compound Nos. 1, 3, 4, 5, 6, 7, 13, 70, 127, 128 and 130 are shown in Table 8.

[3] = tested on: Lindernia procumbens Philcox (resistant to sulfonylurea type herbicide); experiment: as above; settings: 60 g ai/ha, applied on water surface at beginning of sprouting, rated after 3 weeks; 100% = complete withering, 0% = no effect
Description: as §2, §3, §4, §1, §5

rice (cultivar: Balilla) [4] = experiment: Irrigated directly seeded paddy rice, herbicide damage, spraying to stems and leaves after sprouting (Test Example 3, Table 11); settings: 20 g ai/ha, rated after 3 weeks
Description: as §1
(§6) In a greenhouse seeds of rice (cultivar: Balilla) and weeds (Brachiaria plantaginea, Cyperus esculntus, Cyperus iria L., Echinochloa colonum, Leptochloa chinensis, Ipomoea purpurea, and Sesbania exaltata) were inoculated on the surface layers of pots filled with 100 cm^2 of paddy field soil and covered with soil. Water was poured to produce wet state (water level 0 cm). The prescribed diluted solutions of the formulations of the respective active compounds obtained in the same manner as in Test Example 1 were sprayed on the soil of some pots on completion of the seeding and the solutions of the agents were sprayed over the plants from the above in the rest of the pots after the respective sample plants were grown in first- to third-1 eaf stage in the greenhouse. After one day from the treatment with the compound, water was poured in 3 cm depth. The herbicidal effects and herbicide damage on rice of the respective compounds were investigated after 3 weeks from the treatment. The herbicidal effect and herbicide damage on the rice were rated as 100% in the case of complete withering and 0% in the case of no herbicidal effect or no harm. When herbicidal effect was 80% or higher, it was determined to be practically applicable as herbicides. When the herbicide damage was 20% or lower, the safety of the herbicide was evaluated to be excellent.

Ipomoea purpurea [5] = experiment: Irrigated directly seeded paddy rice, herbicidal effect, spraying to soil before sprouting (Test Example 3, Table 10); settings: 20 g ai/ha, rated after 3 weeks
Description: as §1, §6

Leptochloa chinensis [6] = experiment: as above; settings: 20 g ai/ha, rated after 3 weeks
Description: as §1, §6

Brachiaria plantaginea [7] = experiment: as above; settings: 20 g ai/ha, rated after 3 weeks
Description: as §1, §6

Cyperus esculntus [8] = experiment: as above; settings: 20 g ai/ha, rated after 3 weeks
Description: as §1, §6

Echinochloa colonum [9] = experiment: as above; settings: 20 g ai/ha, rated after 3 weeks
Description: as §1, §6

Sesbania exaltata [10] = experiment: as above; settings: 20 g ai/ha, rated after 3 weeks
Description: as §1, §6

Cyperus iria L. [11] = experiment: as above; settings: 20 g ai/ha, rated after 3 weeks
Description: as §1, §6

Ipomoea purpurea [12] = experiment: Irrigated directly seeded paddy rice, herbicidal effect, spraying to stems and leaves after sprouting (Test Example 3, Table 11); settings: 20 g ai/ha, rated after 3 weeks
Description: as §1, §6

Brachiaria plantaginea [13] = experiment: as above; settings: 20 g ai/ha, rated after 3 weeks
Description: as §1, §6

Cyperus esculntus [14] = experiment: as above; settings: 20 g ai/ha, rated after 3 weeks
Description: as §1, §6

Echinochloa colonum [15] = experiment: as above; settings: 20 g ai/ha, rated after 3 weeks
Description: as §1, §6

Sesbania exaltata [16] = experiment: as above; settings: 20 g ai/ha, rated after 3 weeks
Description: as §1, §6

Cyperus iria L. [17] = experiment: as above; settings: 20 g ai/ha, rated after 3 weeks
Description: as §1, §6

rice (cultivar: Balilla) [18] = experiment: Irrigated directly seeded paddy rice, herbicide damage, spraying to soil before sprouting (Test Example 3, Table 10); settings: 20 g ai/ha, rated after 3 weeks
Description: as §1, §6

Leptochloa chinensis [19] = experiment: Irrigated directly seeded paddy rice, herbicidal effect, spraying to stems and leaves after sprouting (Test Example 3, Table 11); settings: 20 g ai/ha, rated after 3 weeks
Description: as §1, §6

Glycine max = experiment: Herbicide damage to crops in dry field, spraying treatment on soil before sprouting (Test Example 4, Table 12); settings: 80 g ai/ha, rated after 3 weeks
Description: as §1, §6
(§7) In a greenhouse one seed each of crops in dry field (Triticum aestivum and Glycine max) and weeds (Echinochloa crus-gali and Setaria vividis) were inoculated in the surface layer in one pot filled with 16 cm^2 of dry field soil and covered with soil. The prescribed diluted solutions of the formulations of the respective active compounds obtained in the same manner as in Test Example 1 were sprayed to the soil upon the inoculation. The herbicidal effect and herbicide damage on crops of the respective compounds were investigated after 3 weeks from the treatment. Evaluations of the herbicidal effect and herbicide damage were carried out in the same manner as in Test Example 3. As the representative example, the test results of compound No. 1 and 24, and the comparative compound C-1 are shown in Table 12.

Triticum aestivum = experiment: as above; settings: 80 g ai/ha, rated after 3 weeks
Description: as §1, §6, §7

Setaria vividis = experiment: Herbicidal effect on weeds in dry field, spraying treatment on soil before sprouting (Test Example 4, Table 12); settings: 80 g ai/ha, spraying to soil before sprouting, rated after 3 weeks
Description: as §1, §6, §7

Echinochloa crus-gali = experiment: as above; settings: 80 g ai/ha, spraying to soil before sprouting, rated after 3 weeks
Description: as §1, §6, §7

COCc1cccc(C(O)c2nc(OC)cc(OC)n2)c1NS(=O)(=O)C(F)F (stereo not shown) [C-2, reference compound]
Herbicide damage on transplanted paddy rice [1]: 30%

CCOc1ccccc1OS(=O)(=O)NC(=O)Nc1nc(OC)cc(OC)n1 [C-3, Ethoxysulfuron, reference compound]
Herbicidal effect to sulfonylurea resistant weeds: Scirpus juncoides Roxburgh (from Hokkaido) [2]: 10% | Herbicidal effect to sulfonylurea resistant weeds: Lindernia procumbens Philcox (from Saitama pref.) [3]: 10%

COC(=O)c1ccccc1CS(=O)(=O)NC(=O)Nc1nc(OC)cc(OC)n1 [C-4, Bensulfuron-methyl, reference compound]
Herbicidal effect to sulfonylurea resistant weeds: Scirpus juncoides Roxburgh (from Hokkaido) [2]: 10% | Herbicidal effect to sulfonylurea resistant weeds: Lindernia procumbens Philcox (from Saitama pref.) [3]: 10%

COc1cc(OC)nc(C(O)c2ccc(F)c(F)c2NS(=O)(=O)C(F)F)n1 (stereo not shown) [Compound No. 3, 2,3-Difluoro-6-[1-(4,6-dimethoxypyrimidin-2-yl)-1-hydroxymethyl]-N-difluoromethanesulfonanilide]
Herbicidal effect to sulfonylurea resistant weeds: Scirpus juncoides Roxburgh (from Hokkaido) [2]: 100% | Herbicidal effect to sulfonylurea resistant weeds: Lindernia procumbens Philcox (from Saitama pref.) [3]: 100% | Herbicide damage on transplanted paddy rice [1]: 10%

COc1nc(OC)nc(C(=O)c2cccc(Cl)c2N(C)S(=O)(=O)C(F)F)n1 [compound 2]
Herbicide damage on Rice (rice (cultivar: Balilla) [4]): 10% | Herbicidal effect Ipomoea purpurea (Ipomoea purpurea [5]): 80% | Herbicidal effect Leptochloa chinensis (Leptochloa chinensis [6]): 90% | Herbicidal effect Brachiaria plantaginea (Brachiaria plantaginea [7]): 80% | Herbicidal effect Cyperus esculntus (Cyperus esculntus [8]): 90% | Herbicidal effect Echinochloa colonum (Echinochloa colonum [9]): 80% | Herbicidal effect Sesbania exaltata (Sesbania exaltata [10]): 80% | Herbicidal effect Cyperusiria L. (Cyperus iria L. [11]): 100% | Herbicidal effect Ipomoea purpurea (Ipomoea purpurea [12]): 100% | Herbicidal effect Brachiaria plantaginea (Brachiaria plantaginea [13]): 100% | Herbicidal effect Cyperus esculntus (Cyperus esculntus [14]): 100% | Herbicidal effect Echinochloa colonum (Echinochloa colonum [15]): 100% | Herbicidal effect Sesbania exaltata (Sesbania exaltata [16]): 100% | Herbicidal effect Cyperusiria L. (Cyperus iria L. [17]): 100% | Herbicide damage on Rice (rice (cultivar: Balilla) [18]): 30%

COc1cc(OC)nc(C(O)c2ccc(Cl)c(F)c2NS(=O)(=O)C(F)F)n1 (stereo not shown) [compound 4, 2-fluoro-3-chloro-6-[1-(4,6-dimethoxypyrimidin-2-yl)-1-hydroxymethyl]-N-difluoromethanesulfonanilide]
Herbicidal effect to sulfonylurea resistant weeds: Scirpus juncoides Roxburgh (from Hokkaido) [2]: 100% | Herbicidal effect to sulfonylurea resistant weeds: Lindernia procumbens Philcox (from Saitama pref.) [3]: 100% | Herbicide damage on transplanted paddy rice [1]: 10%

COc1cc(OC)nc(C(O)c2ccc(F)cc2NS(=O)(=O)C(F)F)n1 (stereo not shown) [compound 5]
Herbicidal effect to sulfonylurea resistant weeds: Scirpus juncoides Roxburgh (from Hokkaido) [2]: 100% | Herbicidal effect to sulfonylurea resistant weeds: Lindernia procumbens Philcox (from Saitama pref.) [3]: 100% | Herbicide damage on transplanted paddy rice [1]: 0%

COc1cc(OC)nc(C(O)c2c(F)cccc2NS(=O)(=O)C(F)F)n1 (stereo not shown) [compound 6]
Herbicidal effect to sulfonylurea resistant weeds: Scirpus juncoides Roxburgh (from Hokkaido) [2]: 100% | Herbicidal effect to sulfonylurea resistant weeds: Lindernia procumbens Philcox (from Saitama pref.) [3]: 100% | Herbicide damage on transplanted paddy rice [1]: 10%

COc1cc(OC)nc(C(O)c2c(F)ccc(F)c2NS(=O)(=O)C(F)F)n1 (stereo not shown) [compound 7]
Herbicidal effect to sulfonylurea resistant weeds: Scirpus juncoides Roxburgh (from Hokkaido) [2]: 100% | Herbicidal effect to sulfonylurea resistant weeds: Lindernia procumbens Philcox (from Saitama pref.) [3]: 100% | Herbicide damage on transplanted paddy rice [1]: 10%

COc1nc(OC)nc(C(O)c2cccc(F)c2N(C)S(=O)(=O)C(F)F)n1 (stereo not shown) [compound 9]
Herbicide damage on Rice (rice (cultivar: Balilla) [4]): 20% | Herbicidal effect Ipomoea purpurea (Ipomoea purpurea [5]): 70% | Herbicidal effect Leptochloa chinensis (Leptochloa chinensis [6]): 80% | Herbicidal effect Brachiaria plantaginea (Brachiaria plantaginea [7]): 70% | Herbicidal effect Cyperus esculntus (Cyperus esculntus [8]): 100% | Herbicidal effect Echinochloa colonum (Echinochloa colonum [9]): 100% | Herbicidal effect Sesbania exaltata (Sesbania exaltata [10]): 100% | Herbicidal effect Cyperusiria L. (Cyperus iria L. [11]): 100% | Herbicidal effect Ipomoea purpurea (Ipomoea purpurea [12]): 100% | Herbicidal effect Leptochloa chinensis (Leptochloa chinensis [19]): 60% | Herbicidal effect Brachiaria plantaginea (Brachiaria plantaginea [13]): 100% | Herbicidal effect Cyperus esculntus (Cyperus esculntus [14]): 100% | Herbicidal effect Echinochloa colonum (Echinochloa colonum [15]): 100% | Herbicidal effect Sesbania exaltata (Sesbania exaltata [16]): 100% | Herbicidal effect Cyperusiria L. (Cyperus iria L. [17]): 100% | Herbicide damage on Rice (rice (cultivar: Balilla) [18]): 20%

COCN(c1c(F)cccc1C(=O)c1nc(OC)nc(OC)n1)S(=O)(=O)C(F)F [compound 24]
Herbicide damage Glycine max (Glycine max): 0% | Herbicide damage Triticum aestivum (Triticum aestivum): 0% | Herbicidal effect Setaria vividis (Setaria vividis): 90% | Herbicidal effect Echinochloa crus-gali (Echinochloa crus-gali): 80%

COc1cc(OC)nc(C(O)c2ccc(F)c(C)c2NS(=O)(=O)C(F)F)n1 (stereo not shown) [compound 70]
Herbicidal effect to sulfonylurea resistant weeds: Scirpus juncoides Roxburgh (from Hokkaido) [2]: 100% | Herbicidal effect to sulfonylurea resistant weeds: Lindernia procumbens Philcox (from Saitama pref.) [3]: 90% | Herbicide damage on transplanted paddy rice [1]: 10%

COc1nc(OC)nc(C(=O)c2cccc(OC)c2N(C)S(=O)(=O)C(F)F)n1 [compound 115]
Herbicide damage on transplanted paddy rice [1]: 0%

COc1cc(OC)nc(C(O)c2ccc(F)c(OC)c2NS(=O)(=O)C(F)F)n1 (stereo not shown) [compound 127]
Herbicidal effect to sulfonylurea resistant weeds: Scirpus juncoides Roxburgh (from Hokkaido) [2]: 100% | Herbicidal effect to sulfonylurea resistant weeds: Lindernia procumbens Philcox (from Saitama pref.) [3]: 90% | Herbicide damage on transplanted paddy rice [1]: 0%

COc1cc(OC)nc(C(O)c2ccc(Cl)c(OC)c2NS(=O)(=O)C(F)F)n1 (stereo not shown) [compound 128]
Herbicidal effect to sulfonylurea resistant weeds: Scirpus juncoides Roxburgh (from Hokkaido) [2]: 90% | Herbicidal effect to sulfonylurea resistant weeds: Lindernia procumbens Philcox (from Saitama pref.) [3]: 100% | Herbicide damage on transplanted paddy rice [1]: 0%

CCOc1cccc(C(O)c2nc(OC)cc(OC)n2)c1NS(=O)(=O)C(F)F (stereo not shown) [compound 130]
Herbicidal effect to sulfonylurea resistant weeds: Scirpus juncoides Roxburgh (from Hokkaido) [2]: 100% | Herbicidal effect to sulfonylurea resistant weeds: Lindernia procumbens Philcox (from Saitama pref.) [3]: 100%
